Results reported in US10261017B2, “Methods for detecting and categorizing skin sensitizers” (University of Mississippi, priority 2014, dated 2019).
Where a name gives a salt, the structure may show the parent alone. Read-outs that look alike come from different tables or passages of the source. Marks after values point to notes of the source that are not given here.

What was measured:
[1] = cited from earlier work; for LLNA EC3: reported results (Table 7); for LLNA (EC3): effective concentration, published literature (Table 1); for LLNA Classification: published literature
thiol peptide [2] = test: Cys-DPRA (Direct Peptide Reactivity Assay), literature data; settings: for Cys-DPRA binary classification: FN: false negative; for Cys-DPRA binary classification: FP: false positive; for Cys-DPRA binary classification: TN: true negative; for Cys-DPRA binary classification: TP: true positive
[3] = Microplate spectrophotometric method (DCYA assay), fluorescence end-point; settings: for DCYA 100-RI: RI = reactivity index, 2 equiv. electrophile, pH 10 buffer; for DCYA binary classification: FN: false negative; for DCYA binary classification: FP: false positive; for DCYA binary classification: TN: true negative; for DCYA binary classification: TP: true positive, positive if 100-RI <95; for DCYA assay reactivity / classification in words: microplate spectrophotometric method
[4] = tested on: ARE-dependent gene activity in a recombinant cell line; settings: cited from earlier work
thiol peptide [5] = settings: cited from earlier work; for Cys-DPRA % Pept. remain.: reported results from the literature; for Cys-DPRA, percentage of thiol peptide depleted: adopted from the literature
[6] = NMR method: depletion of electrophile signal on reaction with DCYA; settings: for Conversion at t30 (depletion of electrophile signal): at 30 min; for Conversion at t30 (depletion of electrophile signal) / NMR Method conversion: 1 equiv. DCYA; for NMR Classification: based on depletion of electrophile signal at 30 min; for NMR Method conversion: conversion of test chemical at 90 min, CDCl3; for Conversion rate: 0.1 M DCYA, 0.1 M L-carvone
From the text: The described example can be applied to pure chemicals and mixtures. The method includes the acquisition of at least one NMR spectrum, mixing an electrophile and a nucleophile to acquire an array of control spectra and an addition of catalyst to record an array of reaction spectra. It also includes the quantification of at least one signal and the comparison of the signal with a control and the classification of the reaction based on the depletion of potential sensitizer based on the quantified residual signal.
2,5-Dimethylfuran was used as internal standard. When necessary, characterization of the product(s) formed during the reaction(s) was performed by homonuclear ^1H connectivities using 2D-COSY experiments. […] Two- and three bond ^1H-^13C connectivities were determined by gradient-HMBC experiments in which the evolution period for long-range ^1H-^13C coupling constants was optimized for a ^2,3JC,H of 8 Hz. Through-space ^1H connectivities were determined using a NOESY experiment with a mixing time of 0.450 s. […] Toronto, Canada].
In a 3 mm NMR tube, 1 volume of DCYA (100) mM in CDCl3) was mixed with one volume of sensitizer (100 mM in CDCl3) to give a final concentration of 50 mM for both DCYA and the sensitizer. Control ^1H NMR spectra (reference spectra) were recorded at regular intervals of for a minimum of 5 min. […] All spectra were recorded at constant temperature. All experiments were conducted using the manufacturer's standard presaturation pulse programs and experimental conditions were chosen as explained in NMR spectroscopy section. The progress of the reaction was followed by the diminished peak areas of the resonances for the signal of interest. The spectra were phased, referenced, and integrated using NMR data elaboration software. The structural characterizations of the resulting adducts were confirmed by conducting additional 2D-NMR experiments when necessary.
Covalent reaction of DCYA with carvone is dependent on the activation of the nucleophilic group (ex. sulfhydryl group to the reactive thio-anion) under basic conditions. This reaction is strongly dependent on the nature of the nucleophile and may be modulated by careful choice of the model nucleophile and the reaction conditions.
The control spectra are used as reference spectra (FIG. 3A). All the spectra were subjected to automatic phase and baseline correction using a Bernstein polynomial fit (order 3). After these two steps, all the spectra were integrated over the areas of interest. […] Both vinylic and adduct peak areas were normalized relative to the internal standard signal peaks. […] The concentrations of both electrophile and adduct were then plotted as percentage against time (in minutes). (FIG. 5).

Row | Cys-DPRA binary classification: FN (thiol peptide [2]) | Cys-DPRA binary classification: FP (thiol peptide [2]) | Cys-DPRA binary classification: TN (thiol peptide [2]) | Cys-DPRA binary classification: TP (thiol peptide [2]) | DCYA 100-RI [3] | DCYA binary classification: FN [3] | DCYA binary classification: FP [3] | DCYA binary classification: TN [3] | DCYA binary classification: TP [3] | Compound | LLNA EC3 [1] [%] | KeratinoSens ™ EC3 ([4]; reported results (Table 7)) [µM] | Cys-DPRA % Pept. remain. (thiol peptide [5]) [%] | LLNA Classification [1] | further results
1 | 0 | 0 | 0 | 1 | 96.3 | 1 | 0 | 0 | 0 | O=c1c(-c2ccccc2)c1-c1ccccc1 [Diphenyl cyclopropenone] | 0.003 | 1.84 | 1.2 | – | –
2 | – | – | – | – | 104.6 | – | – | – | – | O=C1OC(=O)C2CCCCC12 (centres unmarked) [1,2-Cyclohexanedicarboxylic anhydride] | 0.84 | >2000 | 84.3 | – | –
3 | 0 | 0 | 0 | – | 88.4 | 0 | 0 | 0 | 1 | C=C(C)[C@@H]1CC=C(C)C(=O)C1 [L-Carvone] | 13 | – | – | Moderate | Depletion ([6]; 0.05 equivalents DBN, chloroform): 23%; Depletion ([6]; 0.1 equivalents DBN, chloroform): 35%; Depletion ([6]; 0.2 equivalents DBN, chloroform): 28%; Conversion rate ([6]; DMSO, 0.1 equiv. DBN): 42%; Conversion rate ([6]; acetonitrile, 0.1 equiv. DBN): 47%; Reaction between DCYA and carvone ([6]; aqueous pH 10 buffer (5% v/v) in acetonitrile, after 90 minutes): 42%; Conversion at t30 (depletion of electrophile signal) [6]: 16%; NMR Classification [6]: Weak; NMR Method conversion ([6]; 0.1 equiv. DBN): 16%; Electrophile depletion ([6]; excess of DCYA, chloroform, 0.1 equiv. DBN): around 37%; Depletion ([6]; excess of electrophile, 2 equiv., chloroform, 0.1 equiv. DBN): 21%; Depletion ([6]; excess of electrophile, 4 equiv., chloroform, 0.1 equiv. DBN): 8%; KeratinoSens ™ EC3 ([4]; published literature (Table 1)): 258.71^20 μM; Cys-DPRA, percentage of thiol peptide depleted (thiol peptide [5]): 26.3^20%
4 | 0 | 0 | 0 | 1 | 54.1 | 0 | 0 | 0 | 1 | CCC=CC=CC=O [2,4-Heptadienal] | 4 | 21.91 | 2.7 | – | –
5 | – | – | – | – | 105.0 | – | – | – | – | OCC=Cc1ccccc1 [Cinnamyl alcohol] | 21 | >2000 | 100 | – | –
6 | 0 | 0 | 0 | 1 | 90.3 | 0 | 0 | 0 | 1 | CC(=O)C(=O)CC(C)C [5-Methyl-2,3-hexanedione] | – | 332.21 | 74.2 | – | –
7 | 0 | 0 | 1 | 0 | 106.4 | 0 | 0 | 1 | 0 | COc1cc(C=O)ccc1O [Vanillin] | – | >2000 | 96.8 | – | –
8 | – | – | – | – | 127.1 | – | – | – | – | Oc1ccc(O)cc1 [p-Hydroquinone] | 0.11 | 51.29 | 16.7 | Strong | LLNA (EC3) [1]: 0.11%; DCYA assay reactivity / classification in words [3]: non-reactive; NMR assay reactivity / classification in words [6]: almost unreactive; Conversion at t30 (depletion of electrophile signal) [6]: 5%; NMR Classification [6]: Non^$; NMR Method conversion ([6]; 0.1 equiv. DBN): 5%; KeratinoSens ™ EC3 ([4]; published literature (Table 1)): 51.29 µM; Cys-DPRA, percentage of thiol peptide depleted (thiol peptide [5]): 83.3%; Cys-DPRA reactivity in words (thiol peptide [5]; literature): non-reactive
9 | 0 | 0 | 0 | 1 | −8.84 | 0 | 0 | 0 | 1 | CCOC(=O)/C=C\C(=O)OCC [Diethyl maleate] | 5.8 | 82.85 | 0 | – | –
10 | 0 | 0 | 0 | 1 | 29.9 | 0 | 0 | 0 | 1 | CCC/C=C/C=O [trans-2-Hexenal] | 5.5 | 374.57 | 2.1 | moderate sensitizer | –

Row | Compound | Cys-DPRA binary classification: FN (thiol peptide [2]) | Cys-DPRA binary classification: FP (thiol peptide [2]) | Cys-DPRA binary classification: TN (thiol peptide [2]) | Cys-DPRA binary classification: TP (thiol peptide [2]) | DCYA 100-RI [3] | DCYA binary classification: FN [3] | DCYA binary classification: FP [3] | DCYA binary classification: TN [3] | DCYA binary classification: TP [3] | LLNA EC3 [1] [%] | KeratinoSens ™ EC3 ([4]; reported results (Table 7)) [µM] | Cys-DPRA % Pept. remain. (thiol peptide [5]) [%] | LLNA Classification [1] | further results
11 | O=C1C=CC(=O)C=C1 [p-Benzoquinone] | 0 | 0 | 0 | 1 | 34.5 | 0 | 0 | 0 | 1 | 0.01 | 32.77 | 1 | Extreme | LLNA (EC3) [1]: 0.01%; DCYA assay reactivity / classification in words [3]: correctly identified as a sensitizer; NMR assay reactivity / classification in words [6]: high reactivity; Depletion in less than five minutes ([6]; NMR, less than five minutes): > 95%; Conversion at t30 (depletion of electrophile signal) [6]: 95%; NMR Classification [6]: Strong; NMR Method conversion ([6]; 0.1 equiv. DBN): 95^# %; KeratinoSens ™ EC3 ([4]; published literature (Table 1)): 32.77 µM; Cys-DPRA, percentage of thiol peptide depleted (thiol peptide [5]): 99.0%
12 | CC(C=O)Cc1ccc(C(C)(C)C)cc1 (centres unmarked) [Lilial] | 0 | 1 | 0 | 0 | – | 1 | 0 | 0 | 0 | – | >2000 | 86 | – | DCYA assay reactivity / classification in words [3]: non-reactive
13 | O=[N+]([O-])c1ccc(Cl)c([N+](=O)[O-])c1 [1-Chloro-2,4-dinitrobenzene] | 0 | 0 | 0 | 1 | – | 1 | 0 | 0 | 0 | – | 3.89 | 0 | – | –
14 | C=CC(=O)OCC [Ethyl acrylate] | 0 | 0 | 0 | 1 | −0.7 | 0 | 0 | 0 | 1 | 28 | 231.19 | 3.6 | Weak | LLNA (EC3) [1]: 28%; Conversion at t30 (depletion of electrophile signal) [6]: 92%; NMR Classification [6]: Strong; NMR Method conversion ([6]; 0.1 equiv. DBN): 93%; KeratinoSens ™ EC3 ([4]; published literature (Table 1)): 231.19 µM; Cys-DPRA, percentage of thiol peptide depleted (thiol peptide [5]): 96.4%
